In brackets after ≈: the same amount, converted by molar mass. Like-named read-outs stand apart in the source and are kept apart here.
Legend:
[1] = 24 h, pH 7.4
[2] = In vitro plasma stability; conditions: for stability in blood plasma (in words): mouse plasma, measured time span 120 min; for half-life at 2 µM: mouse, plasma
3CL^pro = conditions: viral protease 3CLpro, cited from earlier work; for IC50: in vitro
SARS-CoV-2 RdRp = SARS-CoV-2 RdRp (Severe acute respiratory syndrome coronavirus 2, UniProt P0DTD1); experiment: biochemical; conditions: for inhibition at 25 µM / inhibition at 100 µM: SARS-CoV-2 RdRp; for inhibition at 25 µM: compound at 25 µM, read-out: % inhib 25 µM; for inhibition at 100 µM: compound at 100 µM, read-out: % inhib 100 µM
in vitro = conditions: mouse, microsomes, pH 7.4
NTPase/helicase = conditions: cited from earlier work
M^pro = conditions: cited from earlier work
[3] = Aqueous kinetic solubility in PBS pH 7.4; conditions: PBS neutral buffer pH 7.4, 25 °C, 24 h, target 250 µM, 2.5% DMSO

O=c1cc(-c2ccc(O)c(O)c2)oc2cc(O)cc(O)c12 [Luteolin, luteolin]
kinetic solubility (Sk) [1]: 21 ± 4 µM (≈ 6.01 µg/mL) | stability in blood plasma (in words) [2]: stable in the measured time span | half-life at 2 µM [2]: > 2 h | IC50 (3CL^pro): 20 µM | IC50 (SARS-CoV-2 RdRp): 4.6 ± 0.3 µM | inhibition at 25 µM (SARS-CoV-2 RdRp): 89% | inhibition at 100 µM (SARS-CoV-2 RdRp): 100% | half-life at 4.6 µM (in vitro): > 1 h

O=c1c(O)c(-c2ccc(O)c(O)c2)oc2cc(O)cc(O)c12 [Quercetin, quercetin]
stability in blood plasma (in words) [2]: poorly stable | half-life at 2 µM [2]: 0.117 ± 0.0333 h | IC50 (3CL^pro): 24 µM | Ki (3CL^pro): ~7 µM | activity against SARS-CoV NTPase/helicase (NTPase/helicase): active | activity against SARS-CoV Mpro (M^pro): active | inhibition at 25 µM (SARS-CoV-2 RdRp): 81% | inhibition at 100 µM (SARS-CoV-2 RdRp): 100% | kinetic solubility (Sk) [3]: 16 ± 5 µM (≈ 4.84 µg/mL) | half-life at 4.6 µM (in vitro): > 1 h

— PMC9216299, “Quercetin and luteolin are single-digit micromolar inhibitors of the SARS-CoV-2 RNA-dependent RNA polymerase” (Scientific Reports, 2022)
